Test results from PubChem BioAssay AID652041 (Broad Institute, 2013).
Active and inactive are the calls of the source.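 Rule for the calls: active = fitted curve reaching a 35% signal drop at a concentration under 10 µM, within twice the top tested dose; inconclusive = no clear call, values can overlap the other calls; inactive = the rest, including activity opposite to the expected direction.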

Assays:
[1] = growth inhibition of P. falciparum HB3, dose response, HB3 strain, red blood cells, SYBR Green, cherry-picked (AID 652041);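 note: parasites exposed to compound for 72 hours before the DNA read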; conditions: P. falciparum HB3 in RBCs, SYBR Green DNA fluorescence; at 50 µM (top of the series)
[2] = tested on: P. falciparum HB3 in RBCs, SYBR Green DNA fluorescence; experiment: as above

Row | Structure (SMILES) | activity change, negative = inhibition [1] | AC35 [2]
1 | COc1cc2c(c(OC)c1OC)-c1ccc(O)c(=O)cc1[C@@H](NC(C)=O)CC2 | -18.5% (inactive) | 
2 | CC(C)NC(=O)NC(=O)COC(=O)c1ccc([N+](=O)[O-])cc1Cl | -11.6% (inactive) | 
3 | Cc1cccc(C)c1N1C(=O)C2ON(c3ccccc3)C(c3ccncc3)C2C1=O (configuration not stated) | -11.3% (inactive) | 
4 | CC12CCC(O)CC1=CCC1C2CCC2(C)C3=NN=CC3CC12 (configuration not stated) | -17.5% (inactive) | 
5 | O=C1N(c2ccc(Cl)cc2)C(c2cccnc2)N2CCCN12 (configuration not stated) | -10.4% (inactive) | 
6 | O=C(O)c1c(NC(=O)N2CCCC2)sc2c1CCCC2 | -0.929% (inactive) | 
7 | Cc1nc2ccc(C(=O)NCc3ccc4c(c3)OCO4)cc2s1 | -24.7% (inactive) | 
8 | CCCn1c2ccccc2c2cc(C(=O)O)ccc21 | -6.37% (inactive) | 
9 | CCCOc1ccc2ccccc2c1/C=C1\SC(=O)NC1=O | -14.8% (inactive) | 
10 | CCCOc1ccc(S(=O)(=O)n2cc(F)c(=O)[nH]c2=O)cc1 | -21.3% (inactive) | 
11 | CCn1c(CNc2ccc(Cl)cc2)nnc1SCc1ccccc1 | -25.3% (inactive) | 
12 | CCCSC(=S)c1c(C)[nH]n(-c2ccccc2)c1=O | -14.2% (inactive) | 
13 | Clc1ccc(-c2n[nH]c3c2CCC3)cc1Cl | -19.3% (inactive) | 
14 | CCCCn1c(=O)c(C(=O)NCc2ccncc2)c(O)c2ccccc21 | -14% (inactive) | 
15 | CCOc1ccc(N/N=C(/C#N)C(N)=O)cc1 | -12.5% (inactive) | 
16 | CC(C)CSc1n[nH]c(=S)s1 | 1.38% (inactive) | 
17 | COc1ccc(N(C(=O)c2ccncc2)S(=O)(=O)c2ccccc2)cc1 | -28% (inactive) | 
18 | COC(OC)c1ccc(C#N)c(SCc2ccccc2)n1 | -17.5% (inactive) | 
19 | COc1ccc(N(C(=O)c2ccncc2)S(=O)(=O)c2ccc(F)cc2)cc1 | -13.3% (inactive) | 

Row | Structure (SMILES) | activity change, negative = inhibition [1] | AC35 [2]
20 | Cc1cc(NS(=O)(=O)c2ccc(C3CCCCC3)cc2)no1 | 0.534% (inactive) | 
21 | CC1Oc2ccccc2C=C1/C=N/Nc1ccc(C(=O)O)cc1 (configuration not stated) | -20.4% (inactive) | 
22 | Oc1c(Br)cc(-c2ccccc2)cc1Br | -16% (inactive) | 
23 | c1ccc(-c2ccc(OCCCn3cncn3)cc2)cc1 | -10.3% (inactive) | 
24 | CCOC(=O)c1ccc(N2C(=O)CC(N3CCC(O)(c4ccc(Cl)cc4)CC3)C2=O)cc1 (configuration not stated) | -5.74% (inactive) | 
25 | c1ccc(Cn2cc(-c3cccnc3)cn2)cc1 | -23.9% (inactive) | 
26 | CC1=NN(C(N)=S)C(=O)C1N=Nc1cccc(Cl)c1C (configuration not stated) | -12.3% (inactive) | 
27 | COc1cccc(C(C)=C2SC(=S)NC2=O)c1 | -7.61% (inactive) | 
28 | CC1(C)CC(=O)C(N=Nc2ccc3ncsc3c2)=C(O)C1 | -23.1% (inactive) | 
29 | CC1CCN(c2ccc3c(c2)S(=O)(=O)c2ccccc2C3=O)CC1 | -1.13% (inactive) | 
30 | CC(C)=CCc1c(O)ccc(C(=O)Cc2ccccc2)c1O |  | 11 µM
31 | CN(C)c1nc(SCc2ccc(Cl)cc2)nc2c1CCCC2 |  | 33.5 µM
32 | c1ccc(-c2ccc(SCc3cccnc3)nn2)nc1 |  | 35.5 µM
33 | O=C(CSc1ccc(-c2ccccn2)nn1)NCc1ccc(F)cc1 |  | 37.5 µM
34 | CC1CCc2c(C(=O)Nc3ccccn3)csc2C1 (configuration not stated) |  | 35.6 µM
35 | Nc1nc2sc3c(c2c(=O)s1)CCCC3 | -20.8% (inactive) | 
36 | Cc1ccc(Sc2cc(C)nc(-c3ccccn3)n2)cc1 |  | 6.03 µM
37 | Clc1nc(-c2ccccn2)nc2scc(-c3ccccc3)c12 |  | 2.39 µM
